According to patent USRE38863E1, “Chemotaxis assay procedure” (priority 1995, dated 2005):
Where “and” joins values, the source holds several entries; their conditions need not be identical. Identical values can stand only once.

System: HL-60 cells
Assay: Chemotaxis assay: fluorescence of Di-I labeled cells migrated across radiation opaque membrane
Assay type: cell-based
Protocol: The cell line HL-60 (ATCC No. CCL 240) was maintained in logarithmic growth phase as a suspension culture at about 10^6 cells/mL. in RPMI 1640 medium (Mediatech Cellgrow, Fisher Scientific, Pittsburgh, PA.) supplemented with 20% (volume by volume) fetal bovine serum. (Hyclone Laboratories, Salt Lake City, UT). The cells were differentiated into mature myelocytes and neutrophils by incubating the cells for 48 hours at 37° C. in media containing 1.5% (volume by volume) dimethylsulfoxide.
Following the treatment with dimethylsulfoxide, the cells were incubated with 50 μM Di-I fluorescent dye (Molecular Probes, Inc., Eugene, OR) at room temperature for 0.5-2 hours. The cells were then washed with Hanks' Balanced Salt Solution (“HBSS”) (Sigma Chemical Co., St. Louis, MO.) and re-suspended in HBSS to achieve a cell concentration of 10^6 cells/mL. The fluorescence of 0.5 mL. of cell suspension was measured in a Cytofluor™ 2300 fluorescent plate reader (Millipore Corp., Marlborough, MA.).
Membrane 1: Polycarbonate film having a plurality of pores of 8 μm diameter were coated with four molecular layers of carbon and one layer of an admixture of gold and palladium in a vacuum evaporator. […] 6 mm disks of the radiation opaque membrane were glued to the bottom of inserts similar to the Millicell HA-12 mm (Millipore Corp.) or the Transwell-6.5 mm (Costar Corp., Cambridge, MA.) inserts with clear silicone rubber cement.
Membrane 2: A non-porous polyester film (18 μm thick) containing a blue dye (Aquired Technology Inc., Alpharetta, GA.) was subjected to atomic etching to produce a 10 μm thick radiation opaque membrane containing a plurality of pores of 8 μm diameter having a combined radiation blocking efficiency of approximately 99%. 6 mm disks of the radiation opaque membrane were glued to the bottoms of inserts as with membrane 1.
Each insert equipped with the either membrane 1 or membrane 2 were placed in a well of a 24-well culture plate (Falcon, Fisher Scientific). 0.5 mL of labeled cell suspension was placed inside each insert. The plate was incubated for 30 minutes at 37° C. to allow the cells to settle on the radiation opaque membrane. The fluorescence of each well was then measured with the Cytofluor™ 2300 to obtain a zero time reading. 0.5 mL of either N-formyl methionyl leucyl phenylalanine (“f-MLP”) (Sigma Chemical Co.) or HBBS was then added to each well. The fluorescence in each well was then measured at periodic time intervals using the Cytofluor™ 2300 at sensitivity setting 4. Results using membrane 1 are reported in Tables 1 and 2 and graphically illustrated in FIGS. 4 and 5. Results using membrane 2 are reported in Table 3 and graphically illustrated in FIGS. 6 and 7.

[1] = membrane 1, f-MLP/f-MLP (f-MLP also added to cell suspension immediately before start), 10^−7 M
[2] = membrane 1, insert/well HBSS/f-MLP, f-MLP Conc. = 10^−8 M
[3] = membrane 1, insert/well f-MLP/f-MLP (f-MLP added to cell suspension immediately before start), 10^−8 M
[4] = membrane 1, test solutions well/insert HBSS/f-MLP, f-MLP Conc. = 10^−7 M
[5] = membrane 2, Millicell-type insert, well 20: Insert leaked, insert/well HBSS/f-MLP, 2 × 10^−8 M
[6] = membrane 2, Millicell-type inserts, insert/well HBSS/f-MLP, f-MLP Conc. = 2 × 10^−8 M
[7] = membrane 2, Millicell-type inserts, insert/well f-MLP/f-MLP (f-MLP added to cell suspension immediately before start), 2 × 10^−8 M
[8] = membrane 2, Transwell-type inserts, insert/well HBSS/f-MLP, f-MLP Conc. = 2 × 10^−8 M
[9] = membrane 2, Transwell-type inserts, insert/well f-MLP/f-MLP (f-MLP added to cell suspension immediately before start), 2 × 10^−8 M

CSCC[C@H](NC=O)C(=O)N[C@@H](CC(C)C)C(=O)N[C@@H](Cc1ccccc1)C(=O)O [f-MLP, N-formyl methionyl leucyl phenylalanine]
Fluorescence 0 hr. (membrane 1, f-MLP/f-MLP (f-MLP also added to cell suspension immediately before start), 10^−7 M, 0 hr.): 706 | Fluorescence 1 hr. [1]: 654 | Fluorescence 2 hr. [1]: 708 | Fluorescence 3 hr. [1]: 732 | Fluorescence 4 hr. [1]: 728 | Fluorescence 5 hr. [1]: 753 | FLUORESCENCE 0 min. (membrane 1, insert/well HBSS/f-MLP, f-MLP Conc. = 10^−8 M, 0 min. (zero time reading)): 2515 and 2927 and 2895 and 2631 and 2594 | FLUORESCENCE 15 min. [2]: 3388 and 4195 and 4165 and 3398 and 3446 | FLUORESCENCE 30 min. [2]: 3594 and 4475 and 4400 and 3584 and 3707 | FLUORESCENCE 60 min. [2]: 3614 and 4642 and 4539 and 3645 and 3813 | FLUORESCENCE 90 min. [2]: 3717 and 4761 and 4642 and 3728 and 3932 | FLUORESCENCE 150 min. [2]: 3770 and 4788 and 4655 and 3728 and 3999 | FLUORESCENCE 0 min. (membrane 1, insert/well f-MLP/f-MLP (f-MLP added to cell suspension immediately before start), 10^−8 M, 0 min.): 2854 | FLUORESCENCE 15 min. [3]: 2675 | FLUORESCENCE 30 min. [3]: 2721 | FLUORESCENCE 60 min. [3]: 2721 | FLUORESCENCE 90 min. [3]: 2783 | FLUORESCENCE 150 min. [3]: 2783 | Fluorescence 0 hr. (membrane 1, test solutions well/insert HBSS/f-MLP, f-MLP Conc. = 10^−7 M, 0 hr. (zero time reading)): 383 | Fluorescence 1 hr. [4]: 1046 | Fluorescence 2 hr. [4]: 1355 | Fluorescence 3 hr. [4]: 1433 | Fluorescence 4 hr. [4]: 1370 | Fluorescence 5 hr. [4]: 1359 | Fluorescence 0 hr. (membrane 2, Millicell-type insert, well 20: Insert leaked, insert/well HBSS/f-MLP, 2 × 10^−8 M, 0 hr.): 1228 | Fluorescence 0.5 hr. [5]: 5928 | Fluorescence 1 hr. [5]: 6063 | Fluorescence 2 hr. [5]: 6342 | Fluorescence 3 hr. [5]: 6504 | Fluorescence 0 hr. (membrane 2, Millicell-type inserts, insert/well HBSS/f-MLP, f-MLP Conc. = 2 × 10^−8 M, 0 hr. (zero time reading)): 1277 and 1242 | Fluorescence 0.5 hr. [6]: 1573 and 1207 | Fluorescence 1 hr. [6]: 1701 and 1830 | Fluorescence 2 hr. [6]: 1836 and 1931 | Fluorescence 3 hr. [6]: 1851 and 1969 | Fluorescence 0 hr. (membrane 2, Millicell-type inserts, insert/well f-MLP/f-MLP (f-MLP added to cell suspension immediately before start), 2 × 10^−8 M, 0 hr.): 1187 and 1231 | Fluorescence 0.5 hr. [7]: 1181 and 1325 | Fluorescence 1 hr. [7]: 1516 and 1454 | Fluorescence 2 hr. [7]: 1622 and 1541 | Fluorescence 3 hr. [7]: 1673 and 1604 | Fluorescence 0 hr. (membrane 2, Transwell-type inserts, insert/well HBSS/f-MLP, f-MLP Conc. = 2 × 10^−8 M, 0 hr. (zero time reading)): 1055 and 1064 and 1097 | Fluorescence 0.5 hr. [8]: 1770 and 1454 and 1775 | Fluorescence 1 hr. [8]: 2066 and 1846 and 2185 | Fluorescence 2 hr. [8]: 2351 and 2143 and 2411 | Fluorescence 3 hr. [8]: 2536 and 2292 and 2432 | Fluorescence 0 hr. (membrane 2, Transwell-type inserts, insert/well f-MLP/f-MLP (f-MLP added to cell suspension immediately before start), 2 × 10^−8 M, 0 hr.): 1049 and 961 | Fluorescence 0.5 hr. [9]: 1277 and 1245 | Fluorescence 1 hr. [9]: 1413 and 1390 | Fluorescence 2 hr. [9]: 1538 and 1564 | Fluorescence 3 hr. [9]: 1582 and 1711
